Source: ChEMBL document CHEMBL5120829, “Discovery and structural optimization of potent epidermal growth factor receptor (EGFR) inhibitors against L858R/T790M/C797S resistance mutation for lung cancer treatment” (Eur J Med Chem, 2022)

Tests used:
[1] = tested on: Epidermal growth factor receptor (Homo sapiens), P00533 [L858R,T790M,C797S]; test: Inhibition of EGFR L858R/T790M/C797S mutant (unknown origin) at 0.5 uM relative to control
[2] = tested on: Epidermal growth factor receptor (Homo sapiens), P00533 [L858R,T790M,C797S]; test: Inhibition of EGFR L858R/T790M/C797S mutant (unknown origin) at 1 uM relative to control
PC-9 [3] = test: Antiproliferative activity against human PC-9 cells expressing EGFR L858R/T790M/C797S mutant assessed as inhibition of cell growth incubated for 72 hrs by CCK-8 assay; format: functional, cell-based; conditions: PC-9, 72 h
[4] = target: Epidermal growth factor receptor (Homo sapiens, UniProt P00533, C797S/L858R/T790M); test: Inhibition of EGFR L858R/T790M/C797S mutant (unknown origin)
A549 = test: Antiproliferative activity against human A549 cells assessed as inhibition of cell growth incubated for 72 hrs by CCK-8 assay; format: functional, cell-based; conditions: A549, 72 h
A-431 = test: Antiproliferative activity against human A-431 cells assessed as inhibition of cell growth incubated for 72 hrs by CCK-8 assay; format: functional, cell-based; conditions: A-431, 72 h
PC-9 [5] = test: Induction of apoptosis in human PC-9 cells expressing EGFR L858R/T790M/C797S mutant assessed as dead cells at 0.25 uM incubated for 24 hrs by annexin-V/propidium iodide staining-based flow cytometry analysis (reference value: 0.43 %); format: functional
PC-9 [6] = test: Induction of apoptosis in human PC-9 cells expressing EGFR L858R/T790M/C797S mutant assessed as late apoptotic cells at 0.25 uM incubated for 24 hrs by annexin-V/propidium iodide staining-based flow cytometry analysis (reference value: 0.14 %); format: functional
PC-9 [7] = test: Induction of apoptosis in human PC-9 cells expressing EGFR L858R/T790M/C797S mutant assessed as viable cells at 0.25 uM incubated for 24 hrs by annexin-V/propidium iodide staining-based flow cytometry analysis (reference value: 99.1 %); format: functional
PC-9 [8] = test: Induction of apoptosis in human PC-9 cells expressing EGFR L858R/T790M/C797S mutant assessed as early apoptotic cells at 0.25 uM incubated for 24 hrs by annexin-V/propidium iodide staining-based flow cytometry analysis (reference value: 0.3 %); format: functional

Chain of Epidermal growth factor receptor (P00533 25-1210 T790M/C797S/L858R limits assumed): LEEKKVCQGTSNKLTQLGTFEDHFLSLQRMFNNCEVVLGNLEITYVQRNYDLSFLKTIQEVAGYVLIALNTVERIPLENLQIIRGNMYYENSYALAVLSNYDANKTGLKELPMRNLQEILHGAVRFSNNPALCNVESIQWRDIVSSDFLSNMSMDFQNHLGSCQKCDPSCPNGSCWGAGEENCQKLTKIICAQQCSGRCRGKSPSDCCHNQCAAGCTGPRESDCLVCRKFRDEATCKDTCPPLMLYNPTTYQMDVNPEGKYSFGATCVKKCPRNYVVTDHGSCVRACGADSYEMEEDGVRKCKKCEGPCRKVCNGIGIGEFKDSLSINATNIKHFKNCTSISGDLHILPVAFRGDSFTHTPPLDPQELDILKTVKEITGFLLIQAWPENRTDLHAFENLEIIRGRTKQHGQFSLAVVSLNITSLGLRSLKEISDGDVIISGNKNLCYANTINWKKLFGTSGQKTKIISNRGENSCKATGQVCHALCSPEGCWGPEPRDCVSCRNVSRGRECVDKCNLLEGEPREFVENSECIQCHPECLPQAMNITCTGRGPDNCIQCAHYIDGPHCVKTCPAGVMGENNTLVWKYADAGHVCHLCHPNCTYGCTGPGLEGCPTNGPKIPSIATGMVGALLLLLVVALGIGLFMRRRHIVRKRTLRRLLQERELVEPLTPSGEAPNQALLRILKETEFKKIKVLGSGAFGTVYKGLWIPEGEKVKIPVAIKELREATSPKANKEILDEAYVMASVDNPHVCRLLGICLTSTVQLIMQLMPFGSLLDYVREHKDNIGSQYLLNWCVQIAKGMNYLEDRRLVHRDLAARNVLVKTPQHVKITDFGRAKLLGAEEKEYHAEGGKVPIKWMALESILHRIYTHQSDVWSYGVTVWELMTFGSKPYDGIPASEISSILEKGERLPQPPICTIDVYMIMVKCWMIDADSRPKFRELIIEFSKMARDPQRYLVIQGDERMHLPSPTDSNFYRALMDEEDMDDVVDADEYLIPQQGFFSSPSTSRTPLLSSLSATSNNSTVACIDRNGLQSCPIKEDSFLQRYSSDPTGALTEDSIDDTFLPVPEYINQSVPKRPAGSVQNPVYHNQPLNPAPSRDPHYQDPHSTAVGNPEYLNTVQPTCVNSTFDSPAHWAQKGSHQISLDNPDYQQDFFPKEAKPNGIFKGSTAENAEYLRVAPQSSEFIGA
Chain of Epidermal growth factor receptor (Homo sapiens), P00533 [L858R,T790M,C797S] (P00533 whole entry T790M/C797S/L858R): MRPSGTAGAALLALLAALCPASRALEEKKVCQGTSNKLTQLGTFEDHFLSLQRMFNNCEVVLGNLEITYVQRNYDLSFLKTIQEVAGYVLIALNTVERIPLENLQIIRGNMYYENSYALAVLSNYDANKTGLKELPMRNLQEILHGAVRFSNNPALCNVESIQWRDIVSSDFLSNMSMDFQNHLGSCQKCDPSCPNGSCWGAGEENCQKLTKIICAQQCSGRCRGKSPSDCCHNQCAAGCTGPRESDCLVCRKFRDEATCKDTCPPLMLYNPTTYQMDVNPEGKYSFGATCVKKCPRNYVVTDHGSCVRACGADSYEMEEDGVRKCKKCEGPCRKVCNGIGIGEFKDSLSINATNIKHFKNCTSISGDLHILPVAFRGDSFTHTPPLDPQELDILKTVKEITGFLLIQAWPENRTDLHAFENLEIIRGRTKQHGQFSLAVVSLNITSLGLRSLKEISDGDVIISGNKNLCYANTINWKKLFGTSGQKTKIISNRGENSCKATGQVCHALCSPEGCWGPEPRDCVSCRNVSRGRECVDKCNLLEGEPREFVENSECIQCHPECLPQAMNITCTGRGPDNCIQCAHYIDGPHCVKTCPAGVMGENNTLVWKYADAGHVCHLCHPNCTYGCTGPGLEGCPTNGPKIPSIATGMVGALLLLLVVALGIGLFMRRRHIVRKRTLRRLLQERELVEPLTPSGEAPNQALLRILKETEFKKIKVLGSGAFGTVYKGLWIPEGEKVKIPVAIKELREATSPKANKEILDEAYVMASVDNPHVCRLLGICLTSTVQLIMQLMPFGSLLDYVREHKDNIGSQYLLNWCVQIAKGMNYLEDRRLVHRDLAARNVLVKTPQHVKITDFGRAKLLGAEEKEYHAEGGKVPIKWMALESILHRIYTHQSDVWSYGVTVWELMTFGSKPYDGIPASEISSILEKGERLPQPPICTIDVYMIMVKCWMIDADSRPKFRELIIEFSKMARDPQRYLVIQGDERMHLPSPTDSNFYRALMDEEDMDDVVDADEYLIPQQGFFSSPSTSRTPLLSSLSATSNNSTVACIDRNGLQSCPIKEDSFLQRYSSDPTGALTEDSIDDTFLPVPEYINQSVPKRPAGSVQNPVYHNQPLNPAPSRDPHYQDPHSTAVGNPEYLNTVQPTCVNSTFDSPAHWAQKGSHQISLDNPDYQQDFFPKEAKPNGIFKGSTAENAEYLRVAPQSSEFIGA

In the case of `C=CC(=O)Nc1cc(Nc2ncc3cc(C(=O)Nc4cccc(OC)c4)n(C4CCCC4)c3n2)c(OC)cc1N1CCOCC1`, the inhibition [1] is reported as 1.4% and the inhibition [2] is reported as 3.2%.

Compound `C=CC(=O)Nc1cc(Nc2ncc3cc(C(=O)Nc4ccc(F)c(Cl)c4)n(C4CCCC4)c3n2)c(OC)cc1N(C)CCN(C)C` has an inhibition [1] of 8.1% and an inhibition [2] of 10%.

Compound `C=CC(=O)Nc1cc(Nc2ncc3cc(C(=O)Nc4cccc(OC)c4)n(C4CCCC4)c3n2)c(OC)cc1N(C)CCN(C)C` has an inhibition [1] of 11% and an inhibition [2] of 17%.

Compound `C=CC(=O)Nc1cc(Nc2ncc3cc(C(=O)Nc4ccnc(OC)c4)n(C4CCCC4)c3n2)c(OC)cc1N(C)CCN(C)C` has an inhibition [1] of -2.6% and an inhibition [2] of 4.1%.

Compound `C=CC(=O)Nc1cc(Nc2ncc3cc(C(=O)Nc4ccc(OC)cc4)[nH]c3n2)c(OC)cc1N(C)CCN(C)C` has an inhibition [1] of 2.8% and an inhibition [2] of 9.5%.

For `C=CC(=O)Nc1cc(Nc2ncc3cc(C(=O)Nc4cccc(N(C)C)c4)n(C4CCCC4)c3n2)c(OC)cc1N(C)CCN(C)C`, the inhibition [1] was 12% and the inhibition [2] was 16%.

With `C=CC(=O)Nc1cc(Nc2ncc3cc(C(=O)Nc4cccc(OC)c4)n(C(C)C)c3n2)c(OC)cc1N(C)CCN(C)C` the inhibition [1] was 9.3% and the inhibition [2] was 12%.

In the case of `C=CC(=O)Nc1cc(Nc2ncc3cc(C(=O)Nc4cccc(OC)c4)n(C4CC4)c3n2)c(OC)cc1N(C)CCN(C)C`, the inhibition [1] is reported as 7% and the inhibition [2] is reported as 7.8%.

In the case of `C=CC(=O)Nc1cc(Nc2ncc3cc(C(=O)Nc4ccccc4)n(C4CCCC4)c3n2)ccc1N1CCN(C)CC1`, the inhibition [1] is reported as 21% and the inhibition [2] is reported as 37%.

`C=CC(=O)Nc1cc(Nc2ncc3cc(CNc4cccc(C)c4)n(C4CCCC4)c3n2)c(OC)cc1N(C)CCN(C)C` showed an inhibition [1] of 48% and an inhibition [2] of 61%.

Compound `CN(C)CCN(C)c1ccc(Nc2ncc3cc(CNc4ccccc4)n(C4CCCC4)c3n2)cc1` has an IC50 (PC-9 [3]) of 0.248 µM, an inhibition [1] of 88% and an IC50 [4] of 0.304 µM. The IC50 (A549) was 0.426 µM, the IC50 (A-431) was 1.12 µM and the inhibition [2] was 90%.

Work on `C=CC(=O)Nc1cc(Nc2ncc3cc(C(=O)Nc4cccc(OC)c4)n(-c4ccccc4)c3n2)c(OC)cc1N(C)CCN(C)C` yielded an inhibition [1] of 4.1% and an inhibition [2] of 6%.

`C=CC(=O)Nc1cc(Nc2ncc3cc(C(=O)Nc4cccc(OC)c4)n(C4CCCC4)c3n2)c(OC)cc1N1CCN(CCOC)CC1` showed an inhibition [1] of -2.3% and an inhibition [2] of -0.3%.

With `C=CC(=O)Nc1cc(Nc2ncc3cc(CNc4c(C)cccc4C)n(C4CCCC4)c3n2)c(OC)cc1N(C)CCN(C)C` the inhibition [1] was 23% and the inhibition [2] was 40%.

For `C=CC(=O)Nc1cc(Nc2ncc3cc(C(=O)Nc4ccccc4)n(C4CCCC4)c3n2)c(OC)cc1N1CCC(N2CCN(C)CC2)CC1`, the inhibition [1] was 16% and the inhibition [2] was 20%.

Compound `C=CC(=O)Nc1cc(Nc2ncc3cc(C(=O)Nc4ccnc(C)c4)n(C4CCCC4)c3n2)c(OC)cc1N(C)CCN(C)C` has an inhibition [1] of -10% and an inhibition [2] of 8.3%.

`C=CC(=O)Nc1cc(Nc2ncc3cc(C(=O)Nc4ccc5c(c4)OCO5)n(C4CCCC4)c3n2)c(OC)cc1N(C)CCN(C)C` gave an inhibition [1] of 0.5% and an inhibition [2] of 13%.

Compound `C=CC(=O)Nc1cc(Nc2ncc3cc(C(=O)NC4CCCCC4)n(C4CCCC4)c3n2)c(OC)cc1N(C)CCN(C)C` has an inhibition [1] of 4.8% and an inhibition [2] of 6.5%.

Compound `C=CC(=O)Nc1cc(Nc2ncc3cc(C(=O)Nc4ccccc4)n(C4CCCC4)c3n2)c(OC)cc1N1CCN(C(C)C)CC1` has an inhibition [1] of 18% and an inhibition [2] of 21%.

In the case of `C=CC(=O)Nc1cc(Nc2ncc3cc(CNc4cc(C)cc(C)c4)n(C4CCCC4)c3n2)c(OC)cc1N(C)CCN(C)C`, the inhibition [1] is reported as -1.4% and the inhibition [2] is reported as -8.4%.

With `C=CC(=O)Nc1cc(Nc2ncc3cc(C(=O)Nc4cccc(O)c4)n(C4CCCC4)c3n2)c(OC)cc1N(C)CCN(C)C` the inhibition [1] was 5.2% and the inhibition [2] was 22%.

With `C=CC(=O)Nc1cc(Nc2ncc3cc(C(=O)Nc4cccc(OC)c4)n(C4CCCCC4)c3n2)c(OC)cc1N(C)CCN(C)C` the inhibition [1] was 1.1% and the inhibition [2] was 4.9%.

In the case of `C=CC(=O)Nc1cc(Nc2ncc3cc(C(=O)Nc4cc(OC)c(OC)c(OC)c4)n(C4CCCC4)c3n2)c(OC)cc1N(C)CCN(C)C`, the inhibition [1] is reported as 3.1% and the inhibition [2] is reported as 5.3%.

Compound `C=CC(=O)Nc1cc(Nc2ncc3cc(C(=O)Nc4cccc(OC)c4)n(C4CCCC4)c3n2)c(OC)cc1N1CCC(N(C)C)CC1` has an inhibition [1] of 15% and an inhibition [2] of 16%.

Compound `C=CC(=O)Nc1cc(Nc2ncc3cc(C(=O)Nc4cccc(OC(F)(F)F)c4)n(C4CCCC4)c3n2)c(OC)cc1N(C)CCN(C)C` has an inhibition [1] of -1.9% and an inhibition [2] of 0.6%.

With `C=CC(=O)Nc1cc(Nc2ncc3cc(C(=O)Nc4cccc(C#N)c4)n(C4CCCC4)c3n2)c(OC)cc1N(C)CCN(C)C` the inhibition [1] was 3.7% and the inhibition [2] was 3%.

`C=CC(=O)Nc1cc(Nc2ncc3cc(C(=O)Nc4ccc(OC)c(OC)c4)n(C4CCCC4)c3n2)c(OC)cc1N(C)CCN(C)C` showed an inhibition [1] of 7.3% and an inhibition [2] of 8.7%.

Work on `COc1cc(N2CCC(N3CCN(C)CC3)CC2)ccc1Nc1ncc2cc(CNc3ccccc3)n(C3CCCC3)c2n1` yielded an IC50 (PC-9 [3]) of 0.206 µM, an inhibition [1] of 78% and an IC50 [4] of 0.055 µM. It also gave an IC50 (A549) of 2.98 µM, an IC50 (A-431) of 3.15 µM and an inhibition [2] of 82%.

Work on `C=CC(=O)Nc1cc(Nc2ncc3cc(C(=O)NC4CCCc5ccccc54)n(C4CCCC4)c3n2)c(OC)cc1N(C)CCN(C)C` (stereo not drawn) yielded an inhibition [1] of 13% and an inhibition [2] of 23%.

In the case of `C=CC(=O)Nc1cc(Nc2ncc3cc(C(=O)Nc4cccc(C)c4)n(C4CCCC4)c3n2)c(OC)cc1N(C)CCN(C)C`, the inhibition [1] is reported as 6.7% and the inhibition [2] is reported as 14%.

Work on `C=CC(=O)Nc1cc(Nc2ncc3cc(C(=O)Nc4ccccc4)n(C4CCCC4)c3n2)c(OC)cc1N1CCN(C)CC1` yielded an inhibition [1] of 23% and an inhibition [2] of 23%.

With `C=CC(=O)Nc1cc(Nc2ncc3cc(CNc4cccc(OC)c4)n(C4CCCC4)c3n2)c(OC)cc1N(C)CCN(C)C` the inhibition [1] was 41% and the inhibition [2] was 56%.

`C=CC(=O)Nc1cc(Nc2nccc(-c3cn(C)c4ccccc34)n2)c(OC)cc1N(C)CCN(C)C` [OSIMERTINIB] was tested, and the IC50 (PC-9 [3]) was 3.25 µM, the Activity (PC-9 [5]) was 1.1% and the Activity (PC-9 [6]) was 4.75%. It also gave an Activity (PC-9 [7]) of 90.3%, an IC50 (A549) of 0.784 µM and an Activity (PC-9 [8]) of 3.83%. The IC50 (A-431) was […].

In the case of `C=CC(=O)Nc1cc(Nc2ncc3cc(C(=O)Nc4ccccc4)n(C4CCCC4)c3n2)c(OC)cc1N(C)CCN(C)C`, the inhibition [1] is reported as 18% and the inhibition [2] is reported as 26%.

In the case of `COc1cc(N2CCC(N(C)C)CC2)ccc1Nc1ncc2cc(CNc3ccccc3)n(C3CCCC3)c2n1`, the IC50 (PC-9 [3]) is reported as 0.261 µM, the inhibition [1] is reported as 80% and the IC50 [4] is reported as 0.01 µM. It also gave an IC50 (A549) of 1.63 µM, an IC50 (A-431) of 3.08 µM and an inhibition [2] of 83%.

In the case of `C=CC(=O)Nc1cc(Nc2ncc3cc(C(=O)Nc4cccc(C(F)(F)F)c4)n(C4CCCC4)c3n2)c(OC)cc1N(C)CCN(C)C`, the inhibition [1] is reported as 4.7% and the inhibition [2] is reported as 10%.

`C=CC(=O)Nc1cc(Nc2ncc3cc(C(=O)Nc4ccccc4OC)n(C4CCCC4)c3n2)c(OC)cc1N(C)CCN(C)C` was tested, and the inhibition [1] was 7.5% and the inhibition [2] was 18%.

`C=CC(=O)Nc1cc(Nc2ncc3cc(C(=O)Nc4cccc(OC)c4)n(C)c3n2)c(OC)cc1N(C)CCN(C)C` gave an inhibition [1] of -5% and an inhibition [2] of -1.3%.
